Source: PMC7064328 (Environmental Health Perspectives, 2020)

Columns and labels:
maternal liver [1] = assay: Maternal liver histopathology (H&E); assay type: in vivo, mouse (CD-1); conditions: for CA, any severity: % / CA, any severity: N / CA, marked: % / CA, marked: N / CA, minimal to mild: % / CA, minimal to mild: N / CA, moderate: % / CA, moderate: N / Focal regions of classic necrosis: % / Focal regions of classic necrosis: N / Increase in cell death: % / Increase in cell death: N / Increase in mitotic figures: % / Increase in mitotic figures: N / Vacuolation, any severity: % / Vacuolation, any severity: N / Vacuolation, mild: % / Vacuolation, mild: N / Vacuolation, minimal: % / Vacuolation, minimal: N / Vacuolation, moderate: % / Vacuolation, moderate: N: maternal liver
Text: From each uterus, first, viable embryos and their matched placentas were collected in succession within a horn and immediately snap frozen ( n=2–5 per litter ), and subsequent embryos were collected for growth measurements ( n=2–11 per litter ). Additional placentas were collected and placed in 4% paraformaldehyde (PFA) for histological analysis (Block 2 only). Amniotic fluid was collected by needle aspiration from litters euthanized at E11.5 and snap frozen in liquid nitrogen. Embryo livers were collected from litters euthanized at E17.5 and snap frozen in liquid nitrogen. Dam livers were weighed, a portion of the left lateral lobe was placed in 4% PFA for histology, and another portion of the same lobe was snap frozen in liquid nitrogen. A third liver section was obtained from Block 2 dams and fixed in McDowell and Trump’s fixative for electron microscopy (EM). Gross lesions were collected when observed and placed in 4% PFA for histology. Dam kidneys were removed, a cross section was prepared from the right kidney, a longitudinal section was prepared from the left kidney, and both sections were fixed in 4% PFA for histological analysis.
Dam livers, kidneys, and placentas were trimmed and embedded by the NIEHS Mouse Embryo Phenotyping Core. Tissues collected at necropsy were fixed in 4% PFA for 72 h and paraffin embedded, and 5-μm sections were prepared and stained with hematoxylin and eosin (H&E). Pathology was evaluated and a pathology review conducted by S.A.E. Diplomate American College of Veterinary Pathologists (DACVP). Pathology reviews were conducted as an informed approach analysis [e.g., nonblinded analysis; see Sills et al. ([2019])]. Select tissue slides were scanned using the AT2 Scanner (Aperio). Images were then captured for publication using the ImageScope software; version 12.3.0.5056 (Aperio). Serum and urine obtained from dams in Block 2 were analyzed using the AU480 clinical chemistry analyzer (Beckman Coulter Inc.). Reagents and calibration standards used to measure alkaline phosphatase (ALP), alanine aminotransferase (ALT), aspartate aminotransferase (AST), blood urea nitrogen (BUN), serum creatinine, urine creatinine, glucose (Glu), total protein (TP), triglyceride (Trig), high-density lipoprotein (HDL), cholesterol (Chol), and albumin (ALB) were purchased from Beckman Coulter Inc. Reagents for sorbitol dehydrogenase (SDH), total bile acid (TBA), and micro-TP were purchased from Sekisui Diagnostics. The reagent used to measure low-density lipoprotein (LDL) was purchased form Diazyme Laboratories.

maternal liver [2] = assay: Transmission electron microscopy of dam liver; assay type: in vivo, mouse (CD-1); conditions: E17.5
Text: Block 2 dam liver portions stored in McDowell and Trump’s fixative ([McDowell and Trump 1976]) were processed using a Leica EM TP processor. Briefly, samples were rinsed with buffer, postfixed in 1% osmium tetroxide in 0.1-M phosphate buffer, rinsed in distilled water, dehydrated, and embedded in Ply/Bed® 812 (Polysciences, Inc.) epoxide resin. Blocks were trimmed, and semithin sections ( ∼0.5μm ) were stained with 1% toluidine blue (Poly-scientific R&D Corp.) O in 1% sodium borate to ascertain areas of interest. Ultrathin sections ( […] ) were cut from areas of interest and placed on 200-mesh copper grids and stained with uranyl acetate and lead citrate, and digital images were captured using an Orius® SC1000 side mount camera (Gatan) attached to a Techani T12 transmission electron microscope (TEM) (FEI Company). In general, peroxisomes were smaller than mitochondria and round with a dark, electron-dense, granular matrix and surrounded by a single membrane. […] Samples were analyzed by R.D.K., Ph.D.

## O=C(O)C(F)(F)C(F)(F)C(F)(F)C(F)(F)C(F)(F)C(F)(F)C(F)(F)F [PFOA, Perfluorooctanoic acid]
Maternal liver [1]; all dose groups, E11.5 and E17.5
  Incidence of livers with adverse outcomes including cytoplasmic alteration: 100%
Maternal liver [1]; E11.5, 1 mg/kg/d
  CA, any severity: %: 100%
  CA, any severity: N: 5
  CA, marked: %: 0%
  CA, marked: N: 0
  CA, minimal to mild: %: 100%
  CA, minimal to mild: N: 5
  CA, moderate: %: 0%
  CA, moderate: N: 0
  Focal regions of classic necrosis: %: 0%
  Focal regions of classic necrosis: N: 0
  Increase in cell death: %: 20%
  Increase in cell death: N: 1
  Increase in mitotic figures: %: 40%
  Increase in mitotic figures: N: 2
  Vacuolation, any severity: %: 0%
  Vacuolation, any severity: N: 0
  Vacuolation, mild: %: 0%
  Vacuolation, mild: N: 0
  Vacuolation, minimal: %: 0%
  Vacuolation, minimal: N: 0
  Vacuolation, moderate: %: 0%
  Vacuolation, moderate: N: 0
Maternal liver [1]; E11.5, 5 mg/kg/d
  CA, any severity: %: 100%
  CA, any severity: N: 5
  CA, marked: %: 100%
  CA, marked: N: 5
  CA, minimal to mild: %: 0%
  CA, minimal to mild: N: 0
  CA, moderate: %: 0%
  CA, moderate: N: 0
  Focal regions of classic necrosis: %: 40%
  Focal regions of classic necrosis: N: 2
  Increase in cell death: %: 60%
  Increase in cell death: N: 3
  Increase in mitotic figures: %: 100%
  Increase in mitotic figures: N: 5
  Vacuolation, any severity: %: 100%
  Vacuolation, any severity: N: 5
  Vacuolation, mild: %: 100%
  Vacuolation, mild: N: 5
  Vacuolation, minimal: %: 0%
  Vacuolation, minimal: N: 0
  Vacuolation, moderate: %: 0%
  Vacuolation, moderate: N: 0
Maternal liver [1]; E17.5, 1 mg/kg/d
  CA, any severity: %: 100%
  CA, any severity: N: 5
  CA, marked: %: 0%
  CA, marked: N: 0
  CA, minimal to mild: %: 0%
  CA, minimal to mild: N: 0
  CA, moderate: %: 100%
  CA, moderate: N: 5
  Focal regions of classic necrosis: %: 0%
  Focal regions of classic necrosis: N: 0
  Increase in cell death: %: 100%
  Increase in cell death: N: 5
  Increase in mitotic figures: %: 0%
  Increase in mitotic figures: N: 0
  Vacuolation, any severity: %: 0%
  Vacuolation, any severity: N: 0
  Vacuolation, mild: %: 0%
  Vacuolation, mild: N: 0
  Vacuolation, minimal: %: 0%
  Vacuolation, minimal: N: 0
  Vacuolation, moderate: %: 0%
  Vacuolation, moderate: N: 0
Maternal liver [1]; E17.5, 5 mg/kg/d
  CA, any severity: %: 100%
  CA, any severity: N: 6
  CA, marked: %: 100%
  CA, marked: N: 6
  CA, minimal to mild: %: 0%
  CA, minimal to mild: N: 0
  CA, moderate: %: 0%
  CA, moderate: N: 0
  Focal regions of classic necrosis: %: 0%
  Focal regions of classic necrosis: N: 0
  Increase in cell death: %: 100%
  Increase in cell death: N: 6
  Increase in mitotic figures: %: 0%
  Increase in mitotic figures: N: 0
  Vacuolation, any severity: %: 100%
  Vacuolation, any severity: N: 6
  Vacuolation, mild: %: 0%
  Vacuolation, mild: N: 0
  Vacuolation, minimal: %: 0%
  Vacuolation, minimal: N: 0
  Vacuolation, moderate: %: 100%
  Vacuolation, moderate: N: 6
Maternal liver [2]; 1 mg/kg/d
  Liver ultrastructure (TEM): enlarged hepatocytes with increased cytoplasmic organelles consistent with mitochondria and peroxisomes, evenly dispersed glycogen, and small vacuoles in the centrilobular regions
Maternal liver [2]; 5 mg/kg/d
  Liver ultrastructure (TEM): abnormal ultrastructure
